In patent publication US20080098491A1, “MOUSE MODELS TO STUDY CACHEXIA” (ZOLTAN LABORATORIES LLC, priority 2006, published 2008):

Key:
MXT mouse mammary tumor [1] = experiment: Cisplatin-treated MXT mouse mammary tumor model, purified PALP, AT, holo-TF, apo-TF (Example 9, Experiment 2); format: in vivo; settings: 12-mg/kg s.c. with cisplatin 3-mg/kg i.p.
From the text: (§1) The B16 mouse melanoma and MXT mouse mammary tumors were developed in first generation hybrid BDF1 (C57 B1 female×DBA/2 male) adult female mice kept at specified pathogen free (SPF) hygienic level. These models were chosen for these experiments because these mice have the complete immune system, and both tumors grow very rapidly. To develop the tumors, B16 and MXT tumor tissue fragments of about 0.1-cm^3 were surgically implanted subcutaneously into the intrascapular region to develop the tumors. Each tumor fragment contained about 1-1.5×10^6 cells. The animals were kept in macrolon cages on ventilated rack at 22-24° C. (50-60% humidity) with lighting regimen of 12/12 h light/dark. The animals had free access to tap water and were fed with sterilized standard diet (Charles River VRF1, Germany) ad libitum. The animals were taken care of according to the “Guiding Principle for the care and use of Animals” based upon the Helsinki declaration and they were approved by the local ethical committee.
(§2) In case of both tumor models the tumor size was usually in the range of 0.2 to 0.5-g when treatments started 7-11 days after tumor implantation; the mice were selected so that in the same treatment group the difference in tumor size was no greater than 0.1 gram. In some experiments, the test proteins were suspended in physiological saline and injected in 50-μl volume subcutaneously in the vicinity of tumor (within 1-cm of tumor margin). In other experiments, the test proteins were dispersed in Vaselinum cholesteratum and used topically; 150-mg cream was applied on the tumor and the vicinity of tumor area (with about 0.5-cm of the tumor margin). The tumor volume was determined by using calipers; this technique is well known to one having ordinary skill in the art. Tumor volume was calculated according to the generally accepted formula: V=a^2×b×7r/6, where “a” and “b” mean the shortest and longest diameter, respectively, of the measured tumor.
Experiment 2. The commercial PALP used in this model for Exp. 1 was composed of PALP (˜10%), TF (˜12%), AT (˜30%), albumin (˜35%) and the degradation products of TF (˜13%). […] In this experiment, it was determined whether the other two major proteins, i.e. TF and AT, present in the commercial PALP preparation in addition to PALP, also influence cisplatin-induced loss of body weight or not. The mouse MXT mammary tumor was developed as described in Example 3. In the first group, animals remained untreated during the whole observation period. In the second group, starting on the 7th day after tumor implantation, mice were administered 3-mg per 1-kg of cisplatin i.p. 6-times every second day. In the third group, starting on the 7th day after tumor implantation, mice were simultaneously administered 3-mg per 1-kg of cisplatin i.p. and 12-mg per 1-kg of purified PALP s.c. In the fourth group, starting on the 7th day after tumor implantation, mice were simultaneously administered 3-mg per 1-kg of cisplatin i.p. and 12-mg per 1-kg of highly purified AT s.c. In the fifth group, starting on the 7th day after tumor implantation, mice were simultaneously administered 3-mg per 1-kg of cisplatin i.p. and 12-mg per 1-kg of commercial holo-TF (h-TF, T 0665 in the Sigma catalog) s.c. In the sixth group, starting on the 7th day after tumor implantation, mice were simultaneously administered 3-mg per 1-kg of cisplatin i.p. and 12-mg per 1-kg of commercial apo-TF (a-TF, T 2036 in the Sigma catalog) s.c. Holo-TF contained 1,100-1,600 μg iron per gram protein while apo-TF was essentially iron-free. Each treatment with the proteins was also performed 6-times on every second day simultaneously with the cisplatin treatment. Each group included 7 animals. The mean values for total weight, tumor weight and body weight (the difference between total and tumor weight) are shown in gram in TABLE 7.

B16 mouse melanoma [2] = experiment: B16 mouse melanoma model, s.c. CCDTHT (Example 8); format: in vivo; settings: for Body weight (total weight minus tumor weight) / Total weight / Tumor weight: CCDTHT 4.5-mg/kg s.c. daily from day 11 until day 22
From the text: as §1, §2
In this model, CCDTHT, a chemically synthesized compound is used to prevent or reverse tumor-induced body weight loss. The B16 mouse tumors were developed as described in Example 3. Two experimental groups each involving five mice were used. In the first group, mice remained untreated during the entire observation period. In the second group, starting on the 11th day after tumor implantation, mice were s.c. administered 4.5-mg/kg CCDTHT; then the treatments were repeated daily until day 22. The mean values for total weight, tumor weight and body weight (the difference between total and tumor weight) are shown in TABLE 5.

MXT mouse mammary tumor [3] = experiment: Cisplatin-treated MXT mouse mammary tumor model, CCDTHT (Example 10); format: in vivo; settings: with cisplatin 3-mg/kg i.p.
From the text: as §1, §2
The mouse MXT mammary tumor was developed as described in Example 3. In the first group, animals remained untreated during the whole observation period. In the second group, starting on the 7th day after tumor implantation, mice were administered 3-mg per 1-kg of cisplatin i.p. 9-times every second day. In the third group, starting on the 7th day after tumor implantation, mice were simultaneously administered 3-mg per 1-kg of cisplatin i.p. and 4.6-mg per 1-kg of CCDTHT s.c. In the fourth group, starting on the 7th day after tumor implantation, mice were simultaneously administered 3-mg per 1-kg of cisplatin i.p. as well as 4.6-mg per 1-kg of CCDTHT s.c. and 14-mg per 1-kg of highly purified PALP s.c. Each treatment was performed 9-times on every second day. Each group included 7 animals. The mean values for total weight, tumor weight and body weight (the difference between total and tumor weight) are shown in TABLE 8.

B16 mouse melanoma [4] = experiment: B16 mouse melanoma model, s.c. commercial PALP, s.c. plus topical PALP, or TF (Example 4, Experiment 2); format: in vivo; settings: TF 16-mg/kg s.c.; for Body weight (total weight minus tumor weight) / Total weight / Tumor weight: days 11-18 daily: commercial PALP 60-mg/kg s.c., topical cream 4-mg commercial PALP/g
From the text: as §1, §2
In this model, either highly purified PALP or commercial PALP was subcutaneously injected to reverse body weight loss in the rapidly growing B16 melanoma model. Two separate experiments were performed to validate the effects of highly purified PALP (Experiment 1) and commercial PALP (Experiment 2). For both experiments, the B16 mouse melanoma model was developed as described in Example 3. The data presented in TABLE 1 (for Experiment 1) and TABLE 2 (for Experiment 2) show the changes in total weight, tumor weight, and body weight (total weight minus tumor weight). In each experimental group all mice survived until the conclusion of the experiment.
Experiment 2. In this experiment, the first group of animals remained untreated for the entire observation period. In the second group, from day 11 through day 18 after implantation of tumor pieces, the animals were treated daily with 60-mg/kg of commercial PALP via s.c. administration (seven treatments). In the third group, from day 11 through day 18 after implantation of tumor pieces, the animals were simultaneously administered 60-mg/kg of commercial PALP via s.c injection and treated topically with 150-mg of cream containing 4-mg commercial PALP in 1-g of Vaselinum cholesteratum (seven treatments). Topical treatment involved spreading the cream on both the tumor and surrounding skin area. In the fourth group, from day 11 through day 18 after implantation of tumor pieces, the animals were treated with 16-mg/kg of commercial partially iron-saturated TF via subcutaneous administration (seven treatments). Each group included seven mice.

MXT mouse mammary tumor [5] = experiment: Cisplatin-treated MXT mouse mammary tumor model, PALP and TF (Example 9, Experiment 1); format: in vivo; settings: co-treated with cisplatin 3-mg/kg i.p.
From the text: as §1, §2
Experiment 1. The mouse MXT mammary tumor was developed as described in Example 3. In the first group, animals remained untreated during the whole observation period. In the second group, starting on the 7th day after tumor implantation, mice were intraperitoneally (i.p.) administered 3-mg per 1-kg total weight of cisplatin 7-times every second day. In the third group, starting on the 7th day after tumor implantation, mice were simultaneously administered 3-mg per 1-kg of cisplatin i.p. and 16-mg per 1-kg of purified PALP s.c. In the fourth group, starting on the 7th day after tumor implantation, mice were simultaneously administered 3-mg per 1-kg of cisplatin i.p. and 60-mg per 1-kg of commercial PALP s.c. In the fifth group, starting on the 7th day after tumor implantation, mice were simultaneously administered 3-mg per 1-kg of cisplatin i.p. and 14-mg per 1-kg of commercial TF (T 3309 in the Sigma catalog) s.c. Each treatment was performed 7-times on every second day. Each group included 7 animals. The mean values for total weight, tumor weight and body weight (the difference between total and tumor weight) are shown in TABLE 6.

fibroblast proliferation [6] = experiment: Fibroblast proliferation in vitro, effect of pre-heating the protein; format: cell-based
Procedure: It is reasonable to expect that pre-heating of PALP at 65-75° C. prior to its use may also enhance its anti-cachectic effect. Thus, a step of heat-activation of both commercial and highly purified PALP preparation may be included prior to their applications.
Thus, pre-heating of TF-containing compositions to enhance the effects of other components, such as PALP and AT will unlikely to alter the ability of TF to reduce tumor- and chemotherapy-induced body weight loss.
Therefore, a step of heat-activation of AT may be included during the preparation of active compositions.

fibroblast proliferation [7] = settings: in vitro; cited from earlier work
[8] = day 11 after tumor transplantation
[9] = day 14 after tumor transplantation
[10] = day 16 after tumor transplantation
[11] = day 18 after tumor transplantation
[12] = day 21 after tumor transplantation
[13] = day 23, CCDTHT 4.5-mg/kg s.c. daily
[14] = day 23 after tumor transplantation

apo-TF: commercial apo-transferrin (Sigma T 2036), essentially iron-free
Effect on cisplatin-induced body weight loss (MXT mouse mammary tumor [1]): partially reversed cisplatin-induced body weight loss

CC[N+](C)(CC)CCOCc1ccc2sc3ccccc3c(=O)c2c1.[I-] [CCDTHT, N,N-diethyl-N-methyl-2-[(9-oxo-9H-thioxanthen-2-yl)methoxy]-ethanaminium iodide]
Effect on body weight (B16 mouse melanoma [2]; CCDTHT 4.5-mg/kg s.c. daily): modest weight gain | Body weight (total weight minus tumor weight) (B16 mouse melanoma [2]; [8]): 22.4 g | Total weight (B16 mouse melanoma [2]; [8]): 23.0 g | Tumor weight (B16 mouse melanoma [2]; [8]): 0.6 g | Body weight (total weight minus tumor weight) (B16 mouse melanoma [2]; [9]): 22.9 g | Total weight (B16 mouse melanoma [2]; [9]): 23.7 g | Tumor weight (B16 mouse melanoma [2]; [9]): 0.8 g | Body weight (total weight minus tumor weight) (B16 mouse melanoma [2]; [10]): 23.2 g | Total weight (B16 mouse melanoma [2]; [10]): 24.2 g | Tumor weight (B16 mouse melanoma [2]; [10]): 1.0 g | Body weight (total weight minus tumor weight) (B16 mouse melanoma [2]; [11]): 23.4 g | Total weight (B16 mouse melanoma [2]; [11]): 24.7 g | Tumor weight (B16 mouse melanoma [2]; [11]): 1.3 g | Body weight (total weight minus tumor weight) (B16 mouse melanoma [2]; [12]): 23.6 g | Total weight (B16 mouse melanoma [2]; [12]): 25.4 g | Tumor weight (B16 mouse melanoma [2]; [12]): 1.8 g | Body weight difference to control mice (B16 mouse melanoma [2]; [13]): about 10% | Body weight heavier than control mice (B16 mouse melanoma [2]; [13]): 2.6 grams | Body weight (total weight minus tumor weight) (B16 mouse melanoma [2]; [14]): 23.8 g | Total weight (B16 mouse melanoma [2]; [14]): 25.9 g | Tumor weight (B16 mouse melanoma [2]; [14]): 2.1 g | Effect on cisplatin-induced body weight loss (MXT mouse mammary tumor [3]): effectively prevents cisplatin-induced body weight loss

TF s.c.: commercial partially iron-saturated human transferrin (Sigma T 3309)
Effect on body weight loss (B16 mouse melanoma [4]; commercial PALP 60-mg/kg s.c.): stabilized body weights but did not promote weight gain | Body weight (total weight minus tumor weight) (B16 mouse melanoma [4]; [8]): 22.4 gram | Total weight (B16 mouse melanoma [4]; [8]): 22.9 gram | Tumor weight (B16 mouse melanoma [4]; [8]): 0.5 gram | Body weight (total weight minus tumor weight) (B16 mouse melanoma [4]; [9]): 23.5 gram | Total weight (B16 mouse melanoma [4]; [9]): 24.2 gram | Tumor weight (B16 mouse melanoma [4]; [9]): 0.7 gram | Body weight (total weight minus tumor weight) (B16 mouse melanoma [4]; [10]): 23.5 gram | Total weight (B16 mouse melanoma [4]; [10]): 24.3 gram | Tumor weight (B16 mouse melanoma [4]; [10]): 0.8 gram | Body weight (total weight minus tumor weight) (B16 mouse melanoma [4]; [11]): 23.6 gram | Total weight (B16 mouse melanoma [4]; [11]): 25.0 gram | Tumor weight (B16 mouse melanoma [4]; [11]): 1.4 gram | Body weight (total weight minus tumor weight) (B16 mouse melanoma [4]; [12]): 23.9 gram | Total weight (B16 mouse melanoma [4]; [12]): 26.1 gram | Tumor weight (B16 mouse melanoma [4]; [12]): 2.2 gram | Body weight (total weight minus tumor weight) (B16 mouse melanoma [4]; [14]): 23.9 gram | Total weight (B16 mouse melanoma [4]; [14]): 26.6 gram | Tumor weight (B16 mouse melanoma [4]; [14]): 2.7 gram | Effect on body weight loss induced by the tumor and cisplatin (MXT mouse mammary tumor [5]): partially reversed body weight loss | Effect of pre-heating on the stimulatory effects on fibroblast proliferation (fibroblast proliferation [6]): not altered by pre-heating it at up to 75 °C for 30 min

AT: human α1-antitrypsin purified to homogeneity from commercial PALP
Effect on cisplatin-induced body weight loss (MXT mouse mammary tumor [1]): partially reversed cisplatin-induced body weight loss | Effect of pre-heating on the stimulatory effect on fibroblast proliferation (fibroblast proliferation [7]): enhanced by pre-heating it at 65-75 °C for 30 min or at 41 °C for 21 hours

holo-TF: commercial holo-transferrin (Sigma T 0665), 1,100-1,600 μg iron per gram protein
Effect on cisplatin-induced body weight loss (MXT mouse mammary tumor [1]): partially reversed cisplatin-induced body weight loss
